Our source for the melting point values is a melting point compilation (Tetko et al.; mined from patent text by program, amines drawn as free bases though some values may be those of a salt).

The melting point is the temperature of the solid-liquid transition.

Molecules are shown by their SMILES.

Turning to `O=C1OCCN1CCN1CCN(C2Cc3ccc(Cl)cc3Sc3cc(F)ccc32)CC1` (centres undefined), the melting point was 168 to 170 °C.

`Nc1nc(CN2CCC(c3c[nH]c4ccccc34)CC2)cs1`: the melting point was 195 to 198 °C.

Regarding `COc1cc(OCc2ccc3c(c2)C(C)(C)CCC3(C)C)ccc1C(=O)OCc1ccccc1`, the melting point fell in the range of 112 to 113 °C.

`CC(C)c1nn(-c2ncc(C(F)(F)F)cn2)cc1CCCO` had a melting point of 98 to 99 °C.

Consider `NCc1cccc2ccc(C(=O)O)cc12`, for which the melting point was in the range of 223 to 225 °C.

Turning to `C=CCNC(=O)c1ccccc1C(c1ccc(O)cc1)c1ccc(O)cc1`, the melting point was in the range of 179 to 181 °C.

`CN(CCCCN1C(=O)C=CC1=O)c1ccccc1`: the melting point lay in the range of 66 to 67 °C.

Molecule `Nc1ccc([N+](=O)[O-])cc1S(N)(=O)=O` gave a melting point of 202 to 204 °C.

On to `CN(CCOc1cccc2cc(S(=O)(=O)c3ccccc3)n(C(=O)OC(C)(C)C)c12)C(=O)OC(C)(C)C`, for which the melting point lay within 118 to 120 °C.

On to `O=c1[nH]c2ncc(-c3ccccn3)nc2n1CC1CCCCC1`, for which the melting point is 194 to 196 °C.

On to `CCc1nc2c(C)cc(C)nc2n1Cc1ccc2c(c1)CCc1ccccc1N2CC(=O)O`, for which the melting point lay within 114 to 115 °C.

In turn, `Cc1c(Cc2cnc[nH]2)cccc1NS(C)(=O)=O` registered a melting point of 224 °C.

In the case of `CCOC(=O)C1(CBr)C=CC=CC1S(=O)(=O)NC(C)(C)C` (centres undefined), the melting point lay in the range of 74 to 75 °C.

For `COC(=O)C=Cc1ccc(-c2ccccc2C(F)(F)F)c(C(F)(F)F)c1`, the melting point lay in the range of 97 to 98 °C.

Take `CC(C(=O)C(O)C1OC(n2cc(F)c(=O)[nH]c2=O)C(O)C1O)c1ccccc1` (mixture of isomers): the melting point lay in the range of 133 to 134 °C.

In the case of `CCOC(=NC(=O)c1ccc(Br)cc1)N1Cc2ccccc2-c2ccccc2C1`, the melting point lay in the range of 116 to 117 °C.

The molecule `CCCCCNC(=O)CC(c1ccc(OC)c(OC)c1)N1C(=O)c2ccccc2C1=O` (centres undefined) registered a melting point of 140 to 142 °C.

With `O=C(NC1CCCCC1)c1c(O)c2cscc2[nH]c1=O`, the melting point turned out to be 244 °C.

Take `CSc1nccc(-c2ccc(NC(=O)c3cc(F)cc(N4CCOCC4)c3)c3ccccc23)n1`: the melting point fell in the range of 135 to 138 °C.

Take `COc1ccc(CC#N)cc1OC1CCCC1`: the melting point lay in the range of 32 to 34 °C.

The molecule `O=C(Nc1cn2nc(Sc3nnc4ccccn34)ccc2n1)C1CC1` gave a melting point of 193 to 195 °C.

In turn, `CCOC(=O)c1cc2c(Br)c(Br)oc2nc1C(=O)OCC` gave a melting point of 96 to 98 °C.

For the molecule `COC(=O)C(C)(O)c1ccc(-c2ccccc2)c(F)c1` (centres undefined), the melting point is 59 to 61 °C.

`O=C(O)CC(Sc1ccccc1)c1ccc(Cl)cc1` (centres undefined) came in with a melting point of 99 to 102 °C.

For `COCc1cccc(-c2c(Cl)ncn2-c2ccc(S(C)(=O)=O)cc2)c1`, the melting point worked out at 178 °C.

`O=C(c1ccc(OC2CCCCC2N2CCCC2)c(F)c1)c1c(-c2ccc(OCCN3CCCC3)cc2)sc2cc(OCc3ccccc3)ccc12` (centres undefined) registered a melting point of 47 to 51 °C.

The molecule `CC(=O)N(CCCCN1CCN(c2csc3cc(F)ccc23)CC1)C(=O)C(C)C` showed a melting point of 98 to 99 °C.

With `CCc1nc2c(C(F)(F)F)cccc2c(O)c1C(=O)O`, the melting point was determined as 174 °C.

Turning to `Cc1cn(NCCCc2ccncc2F)c2ccc(OCc3ccccc3)cc12`, the melting point fell in the range of 94 to 96 °C.

Turning to `CCCCCCCC(=O)N(C)Cc1cc(-c2ccc(C=C3SC(=O)NC3=O)cc2)ccc1OCc1ccccc1`, the melting point is 158 °C.

On to `Cc1nc(CN(C)C)n(-c2ccc(Cl)cc2C(=O)c2ccccc2Cl)c1CO`, for which the melting point fell in the range of 164 to 166 °C.

For the molecule `C=CC(=O)OCC=C(C)CCC=C(C)CCC=C(C)CCC=C(C)CCC=C(C)CCC=C(C)CCC=C(C)CCC=C(C)CCC=C(C)CCC=C(C)C`, the melting point lay in the range of 32 to 32.8 °C.

In turn, `COC(=O)c1nc(-c2ccc(Cl)c(OC)c2F)cc(NC(C)=O)c1C` had a melting point of 182 to 184 °C.

Regarding `CC(C)(C)OC(=O)NCCn1cc(C#N)c(-c2cccc(F)c2)c1Cl`, the melting point is 97 to 99 °C.

Turning to `CC(C)=Nn1c(S)nnc1-n1cccn1`, the melting point was 132 to 138 °C.

The molecule `O=C(O)c1cn(C2CC2)c2c(Cl)c(N3CCC(CNCCF)C3)c(F)cc2c1=O` (centres undefined) had a melting point of 138 to 142 °C.

Regarding `CC(c1ccccc1)c1cccnn1` (centres undefined), the melting point fell in the range of 43 to 48 °C.

In turn, `COCCNC(=O)c1cccc(-c2cccc3cc(Cc4cc(F)cc(C(F)(F)F)c4)sc23)c1` came in with a melting point of 106 to 107 °C.

Consider `CC(=O)NC(Cc1ccccc1)C(=O)Nc1c(C(C)C)cccc1C(C)C` (centres undefined), for which the melting point was 228 to 229 °C.

As to `CNC(C)CN1CCc2c(c(=O)oc3cc(OC)ccc23)C1` (centres undefined), the melting point lay within 109 to 111 °C.

In turn, `CCCCc1oc2ccccc2c1C(=O)c1ccc(OCCBr)cc1` displayed a melting point of 46 to 47 °C.

With `Cn1c(C(F)(F)F)cc(=O)n(-c2c(O)cc(F)cc2F)c1=O`, the melting point is 195 to 196 °C.

Consider `CC(C)OC(=O)N1CCN(c2ccc3oc(-c4ccc(S(C)(=O)=O)cc4F)nc3c2)CC1`, for which the melting point lay in the range of 231 to 234 °C.

In turn, `O=S(=O)(N[C@H]1CC[C@H](CCN2CCN(c3nccc4c3OCC4)CC2)CC1)c1ccccc1` showed a melting point of 122 °C.

`COc1ccc(-c2cncc(C#N)c2N(C)c2ccc3[nH]ccc3c2)cc1OC`: the melting point lay in the range of 224 to 226 °C.

For the molecule `COc1ccc(CN(C)CCCSc2ccc(NC(=O)c3cccc4c(=O)c5ccccc5[nH]c34)cc2)cc1OC`, the melting point came out at 140 °C.

For the molecule `CC(C)Oc1cccc(C=C2Oc3ccc(C(=O)O)cc3C2=O)c1`, the melting point was in the range of 277 to 279 °C.

Take `CCCCCN(CCc1c[nH]c2ccccc12)C(=O)CCCC(=O)OC`: the melting point lay in the range of 70 to 71 °C.

`CC1Oc2c(cc(CN3CCN(c4ccc(C(=O)NC5CC5)cc4)CC3)cc2-c2ccccc2)NC1=O` (centres undefined) showed a melting point of 217 to 224 °C.

`Cc1cccc2c1N(CC(=O)c1ccccc1O)C(=O)C(NC(=O)Nc1cccc(-c3nnn[nH]3)c1)N=C2c1ccccc1F` (centres undefined): the melting point lay in the range of 221 to 225 °C.

`CCCCCCCCCCCCCCCCOC(=O)Nc1ccc(NC(=O)NS(=O)(=O)c2ccc(OC)cc2)cc1` showed a melting point of 185 °C.

`CCC(=O)Nc1nc2ccc(Cl)cc2nc1N` had a melting point of 300 to 302 °C.

For `CN1CCc2cc(O)c(O)c(Sc3ccc([N+](=O)[O-])cc3)c2CC1`, the melting point is 125 to 127 °C.

`O=C(Cc1c(F)c(F)nc(F)c1Cl)OCc1ccccc1`: the melting point lay within 87 to 92 °C.

With `Cc1nnc(-c2ccc3occ(-c4ccc(C(=O)N5CCCC5)c(F)c4)c3c2)o1`, the melting point lay in the range of 195 to 196 °C.

For `COCCn1nc(C(=O)NCc2ccc(OC(C)(C)C(=O)O)c(C)c2)cc1-c1ccc(C(C)(C)C)cc1`, the melting point stood at 65 °C.

`O=C(O)CN(CC(=O)O)Cc1cc(S(=O)(=O)c2ccc(OCc3ccccc3)cc2)cc(CN(CC(=O)O)CC(=O)O)c1O` came in with a melting point of 138 to 143 °C.

`COC(=O)c1sc2c(c1N)-c1ccccc1CN2c1ccccc1` yielded a melting point of 136 to 142 °C.

On to `O=C(O)c1cc[nH]c1Sc1ccc(Cl)cc1Cl`, for which the melting point lay in the range of 160 to 164 °C.

For the molecule `Cc1cccc(C(=O)c2ccc(OCCOc3ccc(C(=O)c4cccc(C)c4)cc3)cc2)c1`, the melting point fell in the range of 164 to 167 °C.

The molecule `CC(NC(=O)OC(C)(C)C)C(=O)Nc1cc(CO)cc(Nc2c3ccccc3nc3ccccc23)c1` (centres undefined) yielded a melting point of 131 to 133 °C.

`CN1C(=O)C(C)(Cc2ccccc2)N(C)C(=O)C1=Cc1cccnc1Cl` (centres undefined) had a melting point of 146 °C.

`CN(Cc1cc(C(F)(F)F)cc(C(F)(F)F)c1)C1CCN(c2ccc(OC[C@@]3(C)Cn4cc([N+](=O)[O-])nc4O3)cc2)CC1` yielded a melting point of 194 to 195 °C.

In turn, `CC(C)(C)OC(=O)CN1C(=O)C(N2C(=O)c3ccccc3C2=O)CSCC1c1cccs1` (centres undefined) displayed a melting point of 211 to 212 °C.

As to `COc1cc(C(F)(F)F)sc1C(=O)O`, the melting point fell in the range of 131 to 132 °C.

`CC(=O)Nc1ccc(C#Cc2ccc(OC3CN4CCC3CC4)nn2)cc1` (centres undefined): the melting point lay within 170 to 175 °C.

`CC(C)Nc1nc2ccccn2c(=O)c1Br` yielded a melting point of 101 to 104 °C.

`COc1cc(N2CCN(C(=O)c3ccc(Nc4ccnc5cc(C(F)(F)F)ccc45)cc3)CC2)nc(OC)n1`: the melting point was in the range of 260 to 262 °C.

Take `O=C1c2ccccc2CS(=O)(=O)N1CC(O)CN1CCOCC1` (centres undefined): the melting point fell in the range of 175 to 177 °C.

In turn, `CSc1nc(-c2cc(NC(=O)c3ccc(C)c(F)c3)ccc2C)c2c(n1)N(c1c(F)cccc1F)C(=O)NC2` yielded a melting point of 167 to 173 °C.

For `COC1(c2cccc(OCc3ccc4ccc(F)cc4c3)c2)CC(C)OC(C)C1` (centres undefined), the melting point worked out at 77 °C.

In turn, `c1ccc2c(c1)CCc1nc(-c3ccncc3)oc1-2` yielded a melting point of 129 to 130 °C.

`CSc1nn2c(N)cc(Cl)nc2c1S(=O)(=O)c1ccccc1` gave a melting point above 230 °C.

`CCOCCn1c(NC2CCN(C(=O)c3cc(C(F)(F)F)cc(C(F)(F)F)c3)C(Cc3ccccc3)C2)nc2ccccc21` (centres undefined): the melting point was found to be 178 °C.

Turning to `CCOC(=O)c1cn2c3c(c(F)c(Cl)cc3c1=O)OCC2C` (centres undefined), the melting point is 263 to 264 °C.

Consider `COC(=O)c1cccc2c1Oc1c(cccc1C(=O)OC)N2`, for which the melting point was 145 to 146 °C.

Turning to `CCCCCCCCC1C=CC(Oc2ccc(C(=O)O)o2)=C2N=C3CCCCC3=C21` (centres undefined), the melting point lay within 130 to 132 °C.

Molecule `CNC(=O)NC1(C)CCCc2sccc21` (centres undefined) returned a melting point of 135 to 145 °C.

Molecule `Fc1ccc(-c2cc(C(S)(C(F)(F)F)C(F)(F)F)[nH]c2-c2ccc(F)cc2)cc1` yielded a melting point of 114 to 115 °C.

`N#CCc1cccc2c(C3CCCC3)nccc12` registered a melting point of 99.4 to 100 °C.

`CN(C)c1cc(CO)cc(N(C)C)c1N1CCCCC1`: the melting point lay within 90 to 92 °C.

Turning to `CC(=O)NC1C2CC(=O)CC1C(N)=C(O)C2=O` (centres undefined), the melting point was above 280 °C.

Molecule `CCSC1(c2ccc(Cl)cc2)OC(c2ccncc2)=Nc2ccccc21` (centres undefined) displayed a melting point of 138 to 139 °C.

For the molecule `NC(=S)c1cn(COC(CO)CO)c2ncnc(N)c12`, the melting point was 180 to 181 °C.
